Compound in one test: C=CC(=O)Nc1ccc(C(=O)Nc2[nH]nc3c2CN(C(=O)N[C@H](CN(C)C)c2ccccc2)C3(C)C)cc1 [YKL-5-124]
The experiment in a line: GR value, 72 h; higher = faster growth (1 = untreated, <0 = killing).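 Note: breast cancer and non-malignant breast epithelial lines, nine half-log doses, viable cells counted by Hoechst and LIVE/DEAD dye imaging versus time-zero plates and DMSO controls.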 As to conditions: 1 µM.
Take CAL851: the GR value was -0.172 GR.
Same read-out and setting: the figure for HCC202 is 0.337 GR.
Consider MDAMB361, for which the GR value is -0.188 GR.
The same measure, in the same setting: the same measure for SUM185PE: 0.496 GR; for SUM1315: 0.133 GR.

The same test, now with this note: 3.162 µM.
As for CAL851, the GR value is -0.25 GR.
Still for that read-out and setting: the same measure for HCC202: 0.288 GR; for MDAMB361: -0.358 GR.
Same read-out and setting: the figure for SUM185PE is 0.231 GR; for SUM1315 it is 0.0326 GR.

The test is the same for the next values; noted with them: 10 µM.
With CAL851, the GR value is -0.561 GR.
On to HCC202, for which the GR value is -0.165 GR.
Same read-out and setting: the same measure for MDAMB361: -0.881 GR; for SUM185PE: -0.008 GR.
Same read-out and setting: the figure for SUM1315 is -0.443 GR.

Compound in a further test: CCc1cnn2c(NCc3ccc[n+]([O-])c3)cc(N3CCCC[C@H]3CCO)nc12
The test is described as above. As to conditions: 0.0001 µM.
In the case of CAL851, the GR value was found to be 0.97 GR.
As for HCC202, the GR value is 0.96 GR.
The same measure, in the same setting: the figure for HCC1428 is 1.11 GR.
Still for that read-out and setting: the figure for HCC1500 is 1.07 GR; for MDAMB157 it is 1.07 GR.
On the same count and under the same terms, the same measure for MDAMB361: 1.02 GR; for SUM185PE: 1.06 GR.
For the cell line SUM1315, the GR value is 1.11 GR.

Staying with this test, now noted: 0.0003162 µM.
In the case of CAL851, the GR value was determined as 1.08 GR.
The same measure, in the same setting: the same measure for HCC202: 0.998 GR.
Same read-out and setting: the figure for HCC1428 is 1.09 GR.
The same measure, in the same setting: the same measure for HCC1500: 0.975 GR; for MDAMB157: 1.05 GR.
Take MDAMB361: the GR value amounted to 1.06 GR.
Still for that read-out and setting: the figure for SUM185PE is 1.2 GR; for SUM1315 it is 0.993 GR.

Staying with this test, now noted: 0.001 µM.
With CAL851, the GR value was found to be 0.982 GR.
As to HCC202, the GR value turned out to be 1.06 GR.
The same measure, in the same setting: the figure for HCC1428 is 0.975 GR; for HCC1500 it is 1.06 GR; for MDAMB157 it is 1.06 GR.
Still for that read-out and setting: the figure for MDAMB361 is 0.999 GR.
On the same count and under the same terms, the same measure for SUM185PE: 1.04 GR; for SUM1315: 1.01 GR.

Staying with this test, now noted: 0.003162 µM.
For CAL851, the GR value was 0.681 GR.
On the same count and under the same terms, the figure for HCC202 is 1.03 GR; for HCC1428 it is 0.984 GR; for HCC1500 it is 1.06 GR.
The same measure, in the same setting: the figure for MDAMB157 is 0.982 GR; for MDAMB361 it is 1.09 GR; for SUM185PE it is 0.999 GR.
Still for that read-out and setting: the figure for SUM1315 is 0.916 GR.

Staying with this test, now noted: 0.01 µM.
Turning to CAL851, the GR value came to 0.0301 GR.
Still for that read-out and setting: the same measure for HCC202: 0.784 GR; for HCC1428: 0.871 GR.
Consider HCC1500, for which the GR value was 0.674 GR.
Still for that read-out and setting: the same measure for MDAMB157: 0.929 GR; for MDAMB361: 0.737 GR.
On the same count and under the same terms, the figure for SUM185PE is 0.955 GR.
Still for that read-out and setting: the same measure for SUM1315: 0.617 GR.

Still in this test, the particulars now being: 0.03162 µM.
Consider CAL851, for which the GR value is -0.178 GR.
On the same count and under the same terms, the figure for HCC202 is 0.0982 GR.
On the same count and under the same terms, the figure for HCC1428 is -0.205 GR.
Consider HCC1500, for which the GR value was -0.172 GR.
In the case of MDAMB157, the GR value was -0.488 GR.
The same measure, in the same setting: the figure for MDAMB361 is -0.473 GR; for SUM185PE it is 0.387 GR; for SUM1315 it is -0.616 GR.

The same test, now with this note: 0.1 µM.
With CAL851, the GR value is -0.234 GR.
Same read-out and setting: the figure for HCC202 is 0.14 GR; for HCC1428 it is -0.538 GR.
The same measure, in the same setting: the same measure for HCC1500: -0.576 GR.
Same read-out and setting: the same measure for MDAMB157: -0.86 GR.
For MDAMB361, the GR value is -0.284 GR.
Same read-out and setting: the same measure for SUM185PE: 0.227 GR; for SUM1315: -0.644 GR.

Still in this test, the particulars now being: 0.3162 µM.
Turning to CAL851, the GR value is -0.213 GR.
Same read-out and setting: the same measure for HCC202: 0.0849 GR; for HCC1428: -0.619 GR.
Consider HCC1500, for which the GR value is -0.534 GR.
For MDAMB157, the GR value is -0.899 GR.
The same measure, in the same setting: the figure for MDAMB361 is -0.28 GR; for SUM185PE it is 0.203 GR.
On the same count and under the same terms, the same measure for SUM1315: -0.639 GR.

The same test, now with this note: 1 µM.
On to CAL851, for which the GR value was -0.239 GR.
Still for that read-out and setting: the same measure for HCC202: 0.0949 GR; for HCC1428: -0.67 GR.
For the cell line HCC1500, the GR value was -0.601 GR.
Turning to MDAMB157, the GR value was -0.915 GR.
Same read-out and setting: the figure for MDAMB361 is -0.282 GR; for SUM185PE it is 0.171 GR; for SUM1315 it is -0.664 GR.

Compound in the next test: CC(=O)c1c(C)c2cnc(Nc3ccc(N4CCN(CCOCCOCCOCCNC(=O)COc5cccc6c5C(=O)N(C5CCC(=O)NC5=O)C6=O)CC4)cn3)nc2n(C2CCCC2)c1=O [BSJ-03-123]
The test is described as above. As to conditions: 0.001 µM.
Regarding CAL851, the GR value is 1.15 GR.
With HCC202, the GR value stood at 0.979 GR.
As to MDAMB361, the GR value was 1.09 GR.
Same read-out and setting: the same measure for SUM185PE: 0.901 GR.
On the same count and under the same terms, the figure for SUM1315 is 0.883 GR.

Still in this test, the particulars now being: 0.003162 µM.
CAL851: the GR value stood at 0.948 GR.
Same read-out and setting: the same measure for HCC202: 0.927 GR; for MDAMB361: 0.828 GR.
The same measure, in the same setting: the figure for SUM185PE is 0.946 GR.
The same measure, in the same setting: the figure for SUM1315 is 0.736 GR.

The same test, now with this note: 0.01 µM.
For CAL851, the GR value amounted to 0.849 GR.
Same read-out and setting: the figure for HCC202 is 0.777 GR.
With MDAMB361, the GR value turned out to be 0.927 GR.
Same read-out and setting: the same measure for SUM185PE: 0.906 GR.
For the cell line SUM1315, the GR value turned out to be 0.79 GR.

Staying with this test, now noted: 0.03162 µM.
As to CAL851, the GR value worked out at 0.839 GR.
HCC202: the GR value was 0.873 GR.
On the same count and under the same terms, the figure for MDAMB361 is 0.784 GR; for SUM185PE it is 0.922 GR.
Still for that read-out and setting: the figure for SUM1315 is 0.651 GR.

The same test, now with this note: 0.1 µM.
As to CAL851, the GR value was 0.601 GR.
Same read-out and setting: the figure for HCC202 is 0.889 GR.
The same measure, in the same setting: the same measure for MDAMB361: 0.659 GR; for SUM185PE: 0.819 GR.
As for SUM1315, the GR value amounted to 0.822 GR.

The test is the same for the next values; noted with them: 0.3162 µM.
In the case of CAL851, the GR value was 0.599 GR.
Still for that read-out and setting: the figure for HCC202 is 0.829 GR; for MDAMB361 it is 0.489 GR.
Still for that read-out and setting: the figure for SUM185PE is 0.776 GR.
The same measure, in the same setting: the same measure for SUM1315: 0.641 GR.

The test is the same for the next values; noted with them: 1 µM.
In the case of CAL851, the GR value was found to be 0.447 GR.
Turning to HCC202, the GR value was found to be 0.666 GR.
Same read-out and setting: the same measure for MDAMB361: 0.32 GR; for SUM185PE: 0.799 GR; for SUM1315: 0.497 GR.

Staying with this test, now noted: 3.162 µM.
Consider CAL851, for which the GR value came out at 0.209 GR.
The same measure, in the same setting: the same measure for HCC202: 0.768 GR.

(Values after the supplement of paper PMC9663587.)
